The experiment addresses T1, ArcD1 (Lactococcus cremoris, UniProt A2RNI5).
T1 construct: plasmid pNZarcD1, nisin-inducible; expressed in L. lactis deltaarcD1D2 cells
T1 sequence (A2RNI5 1-526): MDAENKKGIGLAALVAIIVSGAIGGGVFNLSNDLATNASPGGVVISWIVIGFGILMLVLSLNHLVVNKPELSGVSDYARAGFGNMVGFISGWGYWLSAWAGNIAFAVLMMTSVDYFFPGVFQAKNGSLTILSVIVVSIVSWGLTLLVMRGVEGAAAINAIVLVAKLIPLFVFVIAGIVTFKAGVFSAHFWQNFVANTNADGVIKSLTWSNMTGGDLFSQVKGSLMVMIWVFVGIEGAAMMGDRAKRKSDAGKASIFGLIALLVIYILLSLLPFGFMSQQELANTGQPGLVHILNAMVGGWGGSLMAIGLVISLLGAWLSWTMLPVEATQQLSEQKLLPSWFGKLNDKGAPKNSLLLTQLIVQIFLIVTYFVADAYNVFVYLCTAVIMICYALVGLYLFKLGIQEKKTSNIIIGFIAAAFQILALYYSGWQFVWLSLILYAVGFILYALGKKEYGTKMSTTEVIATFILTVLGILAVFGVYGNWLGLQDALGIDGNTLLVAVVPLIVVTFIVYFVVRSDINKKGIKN
Nature of the experiment: inhibition of […]L-ornithine uptake in resting cells. Type of experiment: cell-based. The following applies: read-out: ArcD1 / KI ^b (μm).

As for `NC(=O)NCCC[C@H](N)C(=O)O` [L‐Citr, L‐citrulline], the Ki was found to be 529 ± 135 µM.
